Laboratory results published in patent EP0930314A1, “p-TOLUENESULFONATE HYDRATE OF THIAZOLINE COMPOUND” (TAISHO PHARMACEUTICAL CO. LTD, priority 1996, dated 1998).
pIC50: −log10 of the molar value.

Tests used:
[1] = target: T1, Purified GPIIb/IIIa receptor (Homo sapiens, UniProt P05106+P08514); experiment: Fibrinogen receptor (GPIIb/IIIa) binding inhibition test (solid-phase, ELISA detection of bound fibrinogen); settings: inhibition of fibrinogen (2 µg/ml) binding to solid phased purified GPIIb/IIIa, 4°C, 16 hours
T1 construct: from tissue; the cited Pytela method purifies the receptor from platelet extracts (own knowledge)
Protocol: Purified GPIIb/IIIa was prepared by referring to the methods of Pytela et al (Science, 231 (1986) 1559) and a binding measurement system of solid phased GPIIb/IIIa was carried out by referring to the method of Kouns et al (Blood, 80 (1992) 2539).
Purified GPIIb/IIIa receptor was solidified on 96-well microtiter plates by reacting in a solution (pH 7.4) containing 20 mM Tris-hydrochloric acid, 150 mM sodium chloride, 1 mM calcium chloride, 1 mM magnesium chloride and 0.0005 % Triton X-100 at 4°C for 16 hours. The solid phase was then washed once with a solution (pH 7.4) containing 20 mM Tris-hydrochloric acid, 150 mM sodium chloride, 1 mM calcium chloride, 1 mM magnesium chloride and 0.05 % Tween 20 (Buffer B), and blocked by a solution (pH 7.4) containing 20 mM Tris-hydrochloric acid, 150 mM sodium chloride, 1 mM calcium chloride, 1 mM magnesium chloride and 25 % Block Ace in an amount of 150 µL/well at room temperature for 2 hours. […] The amount of the fibrinogen bound to the plates was measured by an enzyme-linked immunosorbent assay method using antifibrinogen primary antibody and peroxidase-labelled secondary antibody to calculate IC50 value. […]

[2] = tested on: Blood platelet aggregation; experiment: Human in vitro blood platelet aggregation inhibition test (ADP-induced, PRP); type: cell-based; settings: ADP final concentration 7 µM, concentration to inhibit the maximum aggregation by 50 %
Protocol: Citrated blood (the volume ratio of 3.13 % sodium citrate solution to blood is 1:9) was collected from the cubital vein of a healthy human who had not been received any drugs known to affect the function of blood platelet within 2 weeks prior to starting the test. The blood was centrifuged at 120 x g at room temperature for 15 minutes to give platelet rich plasma (PRP) as a supernatant, and further centrifuged at 1500 x g for 10 minutes to give platelet poor plasma (PPP) as a supernatant.
The blood platelet counts of PRP were adjusted to 50 ― 60 x 10^4/µL by diluting with PPP.
Blood platelet aggregation was monitored according to the method of Born G.V.R., [Nature, vol. 194, page 927 (1962)] using adenosine diphosphate (produced by Sigma Co.; hereinafter referred to as "ADP") as an aggregation-inducing substance. That is, a solution of Compound 1 or dihydrate of the compound of Formula (1) as a test drug in dimethyl sulfoxide was adjusted to the desired concentration with a physiological saline solution. […] The mixture was monitored for 5 minutes by using a blood platelet aggregation ability measurement apparatus (Aggricoda TM · PA-3210; made by Kyoto Daiichi Kagaku Co.) and the concentration of the test drug to inhibit the maximum aggregation by 50 % was calculated.

[3] = Hygroscopicity test (change rate of weight after storage at defined relative humidity); type: physicochemical; settings: statement in words; test at 25°C, storage for 30 days, numeric data only in Fig 1
Protocol: Compound 1 obtained in the above example and dihydrate of the compound of Formula (1) were used as test drugs. About 100 mg of the test drug was taken into a weighing bottle and weighed accurately. The weighed test drug in the weighing bottle was stored at 25°C in a decicator which was adjusted to the defined relative humidity by using a desired saturated salt solution or a thermo-hygrostat (Tabaiestec SH-220) which was adjusted to the proper relative humidity.
After storage for 30 days, the test drug was weighed, and the change rate of weight was calculated to use as an index of hygroscopicity.

T1 sequence (P08514 32-887 limits assumed): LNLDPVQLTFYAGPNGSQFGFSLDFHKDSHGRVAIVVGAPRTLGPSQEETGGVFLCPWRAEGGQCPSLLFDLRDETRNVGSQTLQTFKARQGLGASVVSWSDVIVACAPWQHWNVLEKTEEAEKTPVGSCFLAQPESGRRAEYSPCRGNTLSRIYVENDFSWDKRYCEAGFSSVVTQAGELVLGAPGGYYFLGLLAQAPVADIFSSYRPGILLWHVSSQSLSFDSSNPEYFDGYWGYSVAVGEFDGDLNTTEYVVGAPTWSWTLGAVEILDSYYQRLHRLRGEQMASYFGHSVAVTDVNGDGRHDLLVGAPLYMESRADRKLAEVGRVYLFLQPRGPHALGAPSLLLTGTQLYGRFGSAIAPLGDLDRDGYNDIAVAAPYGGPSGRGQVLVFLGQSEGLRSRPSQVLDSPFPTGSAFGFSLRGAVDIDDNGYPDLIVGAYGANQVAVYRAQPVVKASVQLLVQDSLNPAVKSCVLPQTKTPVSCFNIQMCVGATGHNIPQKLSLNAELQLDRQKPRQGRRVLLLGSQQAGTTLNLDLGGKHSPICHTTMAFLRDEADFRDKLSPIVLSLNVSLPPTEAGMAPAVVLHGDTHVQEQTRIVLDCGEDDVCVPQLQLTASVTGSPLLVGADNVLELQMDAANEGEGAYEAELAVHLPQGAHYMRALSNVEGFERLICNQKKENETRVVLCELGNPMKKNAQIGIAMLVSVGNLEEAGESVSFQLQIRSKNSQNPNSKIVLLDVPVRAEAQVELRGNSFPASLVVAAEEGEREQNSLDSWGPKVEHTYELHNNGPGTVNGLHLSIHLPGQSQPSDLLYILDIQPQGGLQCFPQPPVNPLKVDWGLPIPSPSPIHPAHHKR
T1 sequence (P08514 891-1039 limits assumed): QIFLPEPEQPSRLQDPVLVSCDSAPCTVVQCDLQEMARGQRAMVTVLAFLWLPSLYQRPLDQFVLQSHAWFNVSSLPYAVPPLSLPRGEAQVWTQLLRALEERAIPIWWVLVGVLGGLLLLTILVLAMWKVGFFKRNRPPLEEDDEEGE
T1 sequence (P05106 27-788): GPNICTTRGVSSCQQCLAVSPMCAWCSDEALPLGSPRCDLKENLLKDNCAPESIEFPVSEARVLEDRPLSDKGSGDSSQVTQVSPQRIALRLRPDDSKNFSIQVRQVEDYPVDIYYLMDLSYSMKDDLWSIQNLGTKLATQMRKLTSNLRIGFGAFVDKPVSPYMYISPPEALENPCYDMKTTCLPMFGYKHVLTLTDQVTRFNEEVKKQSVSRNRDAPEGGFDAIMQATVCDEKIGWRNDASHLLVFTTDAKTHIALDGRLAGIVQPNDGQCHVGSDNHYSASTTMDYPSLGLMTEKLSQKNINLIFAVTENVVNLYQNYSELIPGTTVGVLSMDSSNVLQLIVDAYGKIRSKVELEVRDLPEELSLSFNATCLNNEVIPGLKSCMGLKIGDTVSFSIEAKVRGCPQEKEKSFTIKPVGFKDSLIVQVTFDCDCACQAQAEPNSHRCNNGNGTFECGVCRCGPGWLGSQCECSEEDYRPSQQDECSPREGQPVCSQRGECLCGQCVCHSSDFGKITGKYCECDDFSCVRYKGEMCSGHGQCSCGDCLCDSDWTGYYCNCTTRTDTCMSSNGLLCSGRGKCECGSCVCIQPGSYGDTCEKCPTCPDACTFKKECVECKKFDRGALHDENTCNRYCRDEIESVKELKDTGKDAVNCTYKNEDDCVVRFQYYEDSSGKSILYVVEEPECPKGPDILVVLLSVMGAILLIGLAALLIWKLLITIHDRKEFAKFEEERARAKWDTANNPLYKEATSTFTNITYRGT

Compound	pIC50 [1]	pIC50 ([2]; Homo sapiens, Platelet)	hygroscopicity [3]	pIC50 [2]
Cc1c(C(=O)NCCC(=O)O)sc(=NC(=O)c2ccc(C(=N)N3CCC4(CC3)OCCO4)cc2)n1C [Compound 1, N-(2-carboxyethyl)-2-{4-[(4,4-ethylenedioxy)piperidin-1-yl]imidoylbenzoylimino}-3,4-dimethyl-3H-thiazoline-5-carboxamide p-toluenesulfonate dihydrate]	10.09	7.66	non-hygroscopic	–
Cc1c(C(=O)NCCC(=O)O)sc(=NC(=O)c2ccc(C(=N)N3CCC4(CC3)OCCO4)cc2)n1C [Dihydrate of the compound of Formula (1), reference compound]	–	–	–	7.68
